Columns and labels:
MHCC97H = assay: Transwell migration assay; assay type: cell-based, human; details: transwell, 1, 5 and 10 nM
Method: (§1) Migration assay was performed using an 8 μm-pore Boyden chamber (24-well, #353097, Corning, NY, USA). Treated with 1, 5, and 10 nM 1D228 for 48 h. A total of 5 × 10^4 cells were seeded in serum-free medium in the top chamber and allowed to migrate for 48 h toward the bottom chamber containing 10% fetal bovine serum medium. Cells were fixed and permeabilized with cold 70% ethanol and methanol and stained with 0.4% crystal violet. The average number of migrating cells was evaluated from at least four independent microscope fields.

ASPC1 = assay: Transwell migration assay; assay type: cell-based, human
Method: as §1

MKN45 xenograft tumor = assay: MKN45 xenograft: 1D228 alone versus Tepotinib and Larotrectinib; assay type: in vivo, nude mouse
Method: Male BALB/c nude mice (5-week old, 18–20 g) were purchased from Beijing Vital River Laboratory Animal Technology (Beijing Vital River LaboratoryAnimal Technology Co., Ltd., Beijing,China) and allowed to acclimate for 1 week, maintained at constant room temperature and fed a standard rodent chow and water. 1 × 10^7 cells/mL cancer cells grown in logarithmic phase were harvested and resuspended in FBS-free 1640 medium. Then, 100 μL of the cell suspension was subcutaneously injected into the right flank of each mouse. When the tumour volume was reached about 600–800 mm^3, it was removed, minced into small pieces of equal volume (2 × 2 × 2 mm^3), and transplanted subcutaneously into the nude mice. […]

EPHA7 = biological target: T1, EPHA7 (Homo sapiens, UniProt Q15375); assay: HTRF/ADP-Glo kinase selectivity panel; assay type: biochemical; details: 500 nM, read-out: 1D228(%inhibition)@500nM
T1 construct: purchased Invitrogen (c-Met, TRKA, TRKB, TRKC)
Method: (§2) The compound was serial diluted from 10 mM stock in DMSO, dilute the test compound to 0.1 mM (200 times the specified test concentration). 2 × ATP & Substrate solution and 2 × kinase & Metal solution were prepared using assay buffer; Transfer 25 nL compound to 384 assay plate by Echo 655; After centrifugation, add 2.5 μL 2 × kinase/metal ion solution 384 assay plate, and incubate at 25 °C for 10 min. 2 × XL665 & Antibody solution were prepared with detection buffer; 5 μL of Kinase Detection Reagent was added to the well, and incubated for 60 min at 25 °C; The fluorescence signals of 620 nm (Cryptate) and 665 nm (XL665) were read by microtiter plate reader; […]

Her4 = biological target: T2, Her4 (Homo sapiens, UniProt Q15303); assay: HTRF/ADP-Glo kinase selectivity panel; assay type: biochemical; details: 500 nM, read-out: 1D228(%inhibition)@500nM
T2 construct: purchased Invitrogen (c-Met, TRKA, TRKB, TRKC)
Method: as §2

ROS1 = biological target: T3, ROS1 (Homo sapiens, UniProt P08922); assay: HTRF/ADP-Glo kinase selectivity panel; assay type: biochemical; details: 500 nM, read-out: 1D228(%inhibition)@500nM
T3 construct: purchased Invitrogen (c-Met, TRKA, TRKB, TRKC)
Method: as §2

EPHB3 = biological target: T4, EPHB3 (Homo sapiens, UniProt P54753); assay: HTRF/ADP-Glo kinase selectivity panel; assay type: biochemical; details: 500 nM, read-out: 1D228(%inhibition)@500nM
T4 construct: purchased Invitrogen (c-Met, TRKA, TRKB, TRKC)
Method: as §2

KDR = biological target: T5, KDR (Homo sapiens, UniProt P35968); assay: HTRF/ADP-Glo kinase selectivity panel; assay type: biochemical; details: 500 nM, read-out: 1D228(%inhibition)@500nM
T5 construct: purchased Invitrogen (c-Met, TRKA, TRKB, TRKC)
Method: as §2

PYK2 = biological target: T6, PYK2 (Homo sapiens, UniProt Q14289); assay: HTRF/ADP-Glo kinase selectivity panel; assay type: biochemical; details: 500 nM, read-out: 1D228(%inhibition)@500nM
T6 construct: purchased Invitrogen (c-Met, TRKA, TRKB, TRKC)
Method: as §2

SYK = biological target: T7, SYK (Homo sapiens, UniProt P43405); assay: HTRF/ADP-Glo kinase selectivity panel; assay type: biochemical; details: 500 nM, read-out: 1D228(%inhibition)@500nM
T7 construct: purchased Invitrogen (c-Met, TRKA, TRKB, TRKC)
Method: as §2

TRKA = biological target: T8, TRKA (Homo sapiens, UniProt P04629); assay: HTRF/ADP-Glo kinase selectivity panel; assay type: biochemical; details: 500 nM, read-out: 1D228(%inhibition)@500nM
T8 construct: purchased Invitrogen (c-Met, TRKA, TRKB, TRKC)
Method: as §2

ACK = biological target: T9, ACK (Homo sapiens, UniProt Q07912); assay: HTRF/ADP-Glo kinase selectivity panel; assay type: biochemical; details: 500 nM, read-out: 1D228(%inhibition)@500nM
T9 construct: purchased Invitrogen (c-Met, TRKA, TRKB, TRKC)
Method: as §2

TRKC = biological target: T10, TRKC (Homo sapiens, UniProt Q16288); assay: HTRF/ADP-Glo kinase selectivity panel; assay type: biochemical; details: 500 nM, read-out: 1D228(%inhibition)@500nM
T10 construct: purchased Invitrogen (c-Met, TRKA, TRKB, TRKC)
T10 sequence (Q16288 32-839): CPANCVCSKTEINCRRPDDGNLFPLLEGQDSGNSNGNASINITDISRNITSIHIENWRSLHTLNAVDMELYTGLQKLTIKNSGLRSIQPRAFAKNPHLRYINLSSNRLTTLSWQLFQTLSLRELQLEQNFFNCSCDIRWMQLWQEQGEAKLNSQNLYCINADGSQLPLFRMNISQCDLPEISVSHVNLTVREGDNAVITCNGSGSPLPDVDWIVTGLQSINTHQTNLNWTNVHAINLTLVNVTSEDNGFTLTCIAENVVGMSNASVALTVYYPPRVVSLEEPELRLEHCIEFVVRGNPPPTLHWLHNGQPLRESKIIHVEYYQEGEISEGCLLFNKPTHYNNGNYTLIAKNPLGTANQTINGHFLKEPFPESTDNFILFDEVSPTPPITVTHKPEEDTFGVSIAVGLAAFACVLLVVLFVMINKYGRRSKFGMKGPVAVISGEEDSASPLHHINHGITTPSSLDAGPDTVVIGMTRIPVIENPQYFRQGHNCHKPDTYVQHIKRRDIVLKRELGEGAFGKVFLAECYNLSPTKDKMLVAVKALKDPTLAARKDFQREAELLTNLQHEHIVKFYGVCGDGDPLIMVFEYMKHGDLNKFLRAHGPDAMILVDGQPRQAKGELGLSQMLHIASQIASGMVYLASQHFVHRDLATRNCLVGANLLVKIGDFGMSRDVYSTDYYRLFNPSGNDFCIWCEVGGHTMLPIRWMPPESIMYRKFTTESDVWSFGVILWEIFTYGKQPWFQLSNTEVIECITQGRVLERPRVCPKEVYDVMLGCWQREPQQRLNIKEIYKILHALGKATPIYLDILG
Method: as §2

JAK3 = biological target: T11, JAK3 (Homo sapiens, UniProt P52333); assay: HTRF/ADP-Glo kinase selectivity panel; assay type: biochemical; details: 500 nM, read-out: 1D228(%inhibition)@500nM
T11 construct: purchased Invitrogen (c-Met, TRKA, TRKB, TRKC)
Method: as §2

FRK = biological target: T12, FRK (Homo sapiens, UniProt P42685); assay: HTRF/ADP-Glo kinase selectivity panel; assay type: biochemical; details: 500 nM, read-out: 1D228(%inhibition)@500nM
T12 construct: purchased Invitrogen (c-Met, TRKA, TRKB, TRKC)
Method: as §2

FLT4 = biological target: T13, FLT4 (Homo sapiens, UniProt P35916); assay: HTRF/ADP-Glo kinase selectivity panel; assay type: biochemical; details: 500 nM, read-out: 1D228(%inhibition)@500nM
T13 construct: purchased Invitrogen (c-Met, TRKA, TRKB, TRKC)
Method: as §2

IGF1R = biological target: T14, IGF1R (Homo sapiens, UniProt P08069); assay: HTRF/ADP-Glo kinase selectivity panel; assay type: biochemical; details: 500 nM, read-out: 1D228(%inhibition)@500nM
T14 construct: purchased Invitrogen (c-Met, TRKA, TRKB, TRKC)
Method: as §2

FGFR1 = biological target: T15, FGFR1 (Homo sapiens, UniProt P11362); assay: HTRF/ADP-Glo kinase selectivity panel; assay type: biochemical; details: 500 nM, read-out: 1D228(%inhibition)@500nM
T15 construct: purchased Invitrogen (c-Met, TRKA, TRKB, TRKC)
T15 sequence (P11362 22-822): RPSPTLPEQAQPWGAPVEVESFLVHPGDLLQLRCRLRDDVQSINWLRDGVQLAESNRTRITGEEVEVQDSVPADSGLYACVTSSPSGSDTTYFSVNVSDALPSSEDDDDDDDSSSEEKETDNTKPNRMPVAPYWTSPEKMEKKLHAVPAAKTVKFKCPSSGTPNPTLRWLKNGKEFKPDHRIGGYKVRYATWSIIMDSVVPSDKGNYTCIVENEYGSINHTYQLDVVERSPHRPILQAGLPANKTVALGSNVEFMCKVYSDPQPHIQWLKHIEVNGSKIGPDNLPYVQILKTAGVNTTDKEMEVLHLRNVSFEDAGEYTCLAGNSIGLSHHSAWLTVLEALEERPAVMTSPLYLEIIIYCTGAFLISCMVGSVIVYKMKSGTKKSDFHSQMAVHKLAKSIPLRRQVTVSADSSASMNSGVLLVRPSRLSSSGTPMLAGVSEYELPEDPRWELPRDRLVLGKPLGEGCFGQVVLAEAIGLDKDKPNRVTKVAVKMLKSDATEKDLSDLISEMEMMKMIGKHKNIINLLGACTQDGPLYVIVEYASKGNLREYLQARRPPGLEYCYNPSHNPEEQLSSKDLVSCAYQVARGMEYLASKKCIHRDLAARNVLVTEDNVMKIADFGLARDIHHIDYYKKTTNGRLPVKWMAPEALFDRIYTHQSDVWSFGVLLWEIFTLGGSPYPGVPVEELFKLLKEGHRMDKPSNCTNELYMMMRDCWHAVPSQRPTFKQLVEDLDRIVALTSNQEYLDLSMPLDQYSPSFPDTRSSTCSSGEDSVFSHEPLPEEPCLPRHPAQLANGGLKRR
Method: as §2

EPHA6 = biological target: T16, EPHA6 (Homo sapiens, UniProt Q9UF33); assay: HTRF/ADP-Glo kinase selectivity panel; assay type: biochemical; details: 500 nM, read-out: 1D228(%inhibition)@500nM
T16 construct: purchased Invitrogen (c-Met, TRKA, TRKB, TRKC)
Method: as §2

DDR2 = biological target: T17, DDR2 (Homo sapiens, UniProt Q16832); assay: HTRF/ADP-Glo kinase selectivity panel; assay type: biochemical; details: 500 nM, read-out: 1D228(%inhibition)@500nM
T17 construct: purchased Invitrogen (c-Met, TRKA, TRKB, TRKC)
Method: as §2

FGFR2 = biological target: T18, FGFR2 (Homo sapiens, UniProt P21802); assay: HTRF/ADP-Glo kinase selectivity panel; assay type: biochemical; details: 500 nM, read-out: 1D228(%inhibition)@500nM
T18 construct: purchased Invitrogen (c-Met, TRKA, TRKB, TRKC)
T18 sequence (P21802 22-821): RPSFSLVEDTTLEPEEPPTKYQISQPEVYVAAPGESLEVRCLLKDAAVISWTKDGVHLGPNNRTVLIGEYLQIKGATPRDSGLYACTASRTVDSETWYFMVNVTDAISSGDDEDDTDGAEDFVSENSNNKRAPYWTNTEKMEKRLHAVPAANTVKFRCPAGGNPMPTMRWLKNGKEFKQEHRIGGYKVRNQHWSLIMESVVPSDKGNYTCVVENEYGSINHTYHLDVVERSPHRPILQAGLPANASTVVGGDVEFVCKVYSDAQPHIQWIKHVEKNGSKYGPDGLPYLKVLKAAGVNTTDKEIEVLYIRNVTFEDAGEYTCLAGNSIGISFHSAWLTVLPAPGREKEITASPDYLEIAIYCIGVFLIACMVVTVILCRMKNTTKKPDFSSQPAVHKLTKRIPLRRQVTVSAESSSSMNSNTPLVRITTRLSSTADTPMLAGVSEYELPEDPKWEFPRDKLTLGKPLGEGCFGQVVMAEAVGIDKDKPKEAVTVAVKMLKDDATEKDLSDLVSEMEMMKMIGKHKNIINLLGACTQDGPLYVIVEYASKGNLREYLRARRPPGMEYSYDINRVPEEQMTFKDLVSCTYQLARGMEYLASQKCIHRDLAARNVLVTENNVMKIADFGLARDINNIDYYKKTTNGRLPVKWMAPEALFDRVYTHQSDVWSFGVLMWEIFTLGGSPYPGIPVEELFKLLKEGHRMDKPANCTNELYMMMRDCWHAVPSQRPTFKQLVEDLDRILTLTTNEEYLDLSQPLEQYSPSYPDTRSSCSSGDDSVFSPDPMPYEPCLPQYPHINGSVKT
Method: as §2

FLT1 = biological target: T19, FLT1 (Homo sapiens, UniProt P17948); assay: HTRF/ADP-Glo kinase selectivity panel; assay type: biochemical; details: 500 nM, read-out: 1D228(%inhibition)@500nM
T19 construct: purchased Invitrogen (c-Met, TRKA, TRKB, TRKC)
T19 sequence (P17948 27-1338): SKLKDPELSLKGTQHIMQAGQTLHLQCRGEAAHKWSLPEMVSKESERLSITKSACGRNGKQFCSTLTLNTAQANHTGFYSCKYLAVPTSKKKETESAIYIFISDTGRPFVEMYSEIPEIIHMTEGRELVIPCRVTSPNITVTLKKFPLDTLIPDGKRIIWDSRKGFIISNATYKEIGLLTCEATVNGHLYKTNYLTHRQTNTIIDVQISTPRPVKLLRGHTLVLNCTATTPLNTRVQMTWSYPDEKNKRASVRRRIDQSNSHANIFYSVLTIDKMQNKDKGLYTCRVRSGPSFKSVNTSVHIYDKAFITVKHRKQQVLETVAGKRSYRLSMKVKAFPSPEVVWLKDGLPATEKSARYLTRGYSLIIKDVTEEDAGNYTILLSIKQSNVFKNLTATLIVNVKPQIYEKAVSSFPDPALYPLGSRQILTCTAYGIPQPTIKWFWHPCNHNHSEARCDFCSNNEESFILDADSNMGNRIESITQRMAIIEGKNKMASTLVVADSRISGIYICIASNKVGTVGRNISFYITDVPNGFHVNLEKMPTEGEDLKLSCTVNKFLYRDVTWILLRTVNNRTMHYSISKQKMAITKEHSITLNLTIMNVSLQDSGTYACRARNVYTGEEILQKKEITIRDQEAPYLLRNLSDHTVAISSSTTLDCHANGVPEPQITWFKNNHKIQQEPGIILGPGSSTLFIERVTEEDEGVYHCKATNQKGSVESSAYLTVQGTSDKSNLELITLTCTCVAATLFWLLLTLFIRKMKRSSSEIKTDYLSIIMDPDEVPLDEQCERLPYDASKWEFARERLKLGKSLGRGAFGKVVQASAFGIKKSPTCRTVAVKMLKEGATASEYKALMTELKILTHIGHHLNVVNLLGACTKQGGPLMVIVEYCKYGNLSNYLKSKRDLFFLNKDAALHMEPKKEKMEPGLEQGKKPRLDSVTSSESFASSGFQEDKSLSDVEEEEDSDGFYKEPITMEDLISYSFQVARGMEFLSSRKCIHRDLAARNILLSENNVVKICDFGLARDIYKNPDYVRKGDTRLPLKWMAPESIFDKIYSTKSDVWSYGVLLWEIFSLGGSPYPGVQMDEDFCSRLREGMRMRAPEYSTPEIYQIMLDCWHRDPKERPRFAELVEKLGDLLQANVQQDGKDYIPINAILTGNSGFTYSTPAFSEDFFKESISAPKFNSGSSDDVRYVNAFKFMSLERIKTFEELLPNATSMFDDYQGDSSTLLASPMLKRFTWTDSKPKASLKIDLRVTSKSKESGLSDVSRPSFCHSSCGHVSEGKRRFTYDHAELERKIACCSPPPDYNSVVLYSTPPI
Method: as §2

TXK = biological target: T20, TXK (Homo sapiens, UniProt P42681); assay: HTRF/ADP-Glo kinase selectivity panel; assay type: biochemical; details: 500 nM, read-out: 1D228(%inhibition)@500nM
T20 construct: purchased Invitrogen (c-Met, TRKA, TRKB, TRKC)
T20 sequence (P42681 whole entry): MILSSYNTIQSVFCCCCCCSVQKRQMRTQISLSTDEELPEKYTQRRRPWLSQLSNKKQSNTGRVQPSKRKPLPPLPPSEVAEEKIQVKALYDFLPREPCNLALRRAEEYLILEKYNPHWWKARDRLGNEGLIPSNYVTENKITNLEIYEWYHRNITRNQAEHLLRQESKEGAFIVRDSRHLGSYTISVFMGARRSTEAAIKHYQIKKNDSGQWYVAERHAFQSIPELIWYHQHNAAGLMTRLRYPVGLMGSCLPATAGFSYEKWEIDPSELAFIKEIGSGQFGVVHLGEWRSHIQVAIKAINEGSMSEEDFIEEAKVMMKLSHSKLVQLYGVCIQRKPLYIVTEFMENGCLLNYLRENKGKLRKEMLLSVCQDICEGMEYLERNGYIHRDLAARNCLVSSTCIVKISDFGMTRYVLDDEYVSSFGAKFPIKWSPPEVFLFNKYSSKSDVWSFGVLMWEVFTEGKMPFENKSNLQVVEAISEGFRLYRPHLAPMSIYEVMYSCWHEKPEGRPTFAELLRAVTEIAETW
Method: as §2

LCK = biological target: T21, LCK (Homo sapiens, UniProt P06239); assay: HTRF/ADP-Glo kinase selectivity panel; assay type: biochemical; details: 500 nM, read-out: 1D228(%inhibition)@500nM
T21 construct: purchased Invitrogen (c-Met, TRKA, TRKB, TRKC)
T21 sequence (P06239 whole entry): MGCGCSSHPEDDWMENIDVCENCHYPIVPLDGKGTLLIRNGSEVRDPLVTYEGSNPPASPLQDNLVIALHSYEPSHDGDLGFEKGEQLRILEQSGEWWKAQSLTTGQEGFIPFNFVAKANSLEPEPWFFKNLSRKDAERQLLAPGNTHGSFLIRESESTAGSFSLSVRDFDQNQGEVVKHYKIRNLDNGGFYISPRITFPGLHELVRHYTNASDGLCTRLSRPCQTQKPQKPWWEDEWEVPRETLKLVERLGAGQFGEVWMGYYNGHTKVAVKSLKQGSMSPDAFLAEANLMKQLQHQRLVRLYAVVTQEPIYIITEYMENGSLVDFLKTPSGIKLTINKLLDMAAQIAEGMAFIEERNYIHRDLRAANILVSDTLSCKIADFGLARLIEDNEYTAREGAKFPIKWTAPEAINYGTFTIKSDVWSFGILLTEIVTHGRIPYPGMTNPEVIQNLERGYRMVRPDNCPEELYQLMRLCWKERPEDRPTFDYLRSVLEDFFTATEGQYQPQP
Method: as §2

FES = biological target: T22, FES (Homo sapiens, UniProt P07332); assay: HTRF/ADP-Glo kinase selectivity panel; assay type: biochemical; details: 500 nM, read-out: 1D228(%inhibition)@500nM
T22 construct: purchased Invitrogen (c-Met, TRKA, TRKB, TRKC)
Method: as §2

PDGFRα = biological target: T23, PDGFRα (Homo sapiens, UniProt P16234); assay: HTRF/ADP-Glo kinase selectivity panel; assay type: biochemical; details: 500 nM, read-out: 1D228(%inhibition)@500nM
T23 construct: purchased Invitrogen (c-Met, TRKA, TRKB, TRKC)
Method: as §2

ALK = biological target: T24, ALK (Homo sapiens, UniProt Q9UM73); assay: HTRF/ADP-Glo kinase selectivity panel; assay type: biochemical; details: 500 nM, read-out: 1D228(%inhibition)@500nM
T24 construct: purchased Invitrogen (c-Met, TRKA, TRKB, TRKC)
Method: as §2

For `[2H][C@@](C)(c1cccc(-c2ncc(OCC3CCN(C)CC3)cn2)c1)n1nc(-c2cccc(C#N)c2)ccc1=O` [1D228], the “Cells blocked from migrating” value (MHCC97H) was 50–80%, the “Cells blocked from migrating” value (ASPC1) was 50–80% and the Tumor volume reduction (MKN45 xenograft tumor; MKN45 gastric cancer nude mouse transplant tumor) was ~90%. The “Body weight of tumor bearing mice” value (MKN45 xenograft tumor; MKN45 xenograft) was “the opposite was true”, the inhibition at 0.5 µM (EPHA7) was -1.36% and the inhibition at 0.5 µM (Her4) was 2.21%. For the same molecule, the inhibition at 0.5 µM (ROS1) was 7.05%, the inhibition at 0.5 µM (EPHB3) was 5.68% and the inhibition at 0.5 µM (KDR) was 5.62%. It also gave an inhibition at 0.5 µM (PYK2) of 1.14%, an inhibition at 0.5 µM (SYK) of 2.47% and an inhibition at 0.5 µM (TRKA) of 93.6%. It also gave an inhibition at 0.5 µM (ACK) of 1.96%, an inhibition at 0.5 µM (TRKC) of 99% and an inhibition at 0.5 µM (JAK3) of 0.193%. For the same molecule, the inhibition at 0.5 µM (FRK) was 11.3%, the inhibition at 0.5 µM (FLT4) was -3.03% and the inhibition at 0.5 µM (IGF1R) was 5.26%. It also gave an inhibition at 0.5 µM (FGFR1) of 1.72%, an inhibition at 0.5 µM (EPHA6) of -1.78% and an inhibition at 0.5 µM (DDR2) of -3.98%. It also gave an inhibition at 0.5 µM (FGFR2) of 1.04%, an inhibition at 0.5 µM (FLT1) of 6% and an inhibition at 0.5 µM (TXK) of 1.29%. The inhibition at 0.5 µM (LCK) was 5.21%, the inhibition at 0.5 µM (FES) was 1.05% and the inhibition at 0.5 µM (PDGFRα) was 8.21%. The inhibition at 0.5 µM (ALK) was 89.5%.
